According to publication PMC11242993, “Evaluation of the Therapeutic Potential of Sulfonyl Urea Derivatives as Soluble Epoxide Hydrolase (sEH) Inhibitors” (Molecules, 2024):

Experiments:
human recombinant sEH = biological target: T1, human recombinant sEH (Homo sapiens, UniProt P34913); experiment: Fluorescence-based sEH activity assay (PHOME substrate), human enzyme; format: biochemical; conditions: for IC50: dose-dependent assay, read-out: Human sEH Inhibition IC50
T1 construct: purchased Cayman Chemical 10011671
T1 sequence (P34913 1-555): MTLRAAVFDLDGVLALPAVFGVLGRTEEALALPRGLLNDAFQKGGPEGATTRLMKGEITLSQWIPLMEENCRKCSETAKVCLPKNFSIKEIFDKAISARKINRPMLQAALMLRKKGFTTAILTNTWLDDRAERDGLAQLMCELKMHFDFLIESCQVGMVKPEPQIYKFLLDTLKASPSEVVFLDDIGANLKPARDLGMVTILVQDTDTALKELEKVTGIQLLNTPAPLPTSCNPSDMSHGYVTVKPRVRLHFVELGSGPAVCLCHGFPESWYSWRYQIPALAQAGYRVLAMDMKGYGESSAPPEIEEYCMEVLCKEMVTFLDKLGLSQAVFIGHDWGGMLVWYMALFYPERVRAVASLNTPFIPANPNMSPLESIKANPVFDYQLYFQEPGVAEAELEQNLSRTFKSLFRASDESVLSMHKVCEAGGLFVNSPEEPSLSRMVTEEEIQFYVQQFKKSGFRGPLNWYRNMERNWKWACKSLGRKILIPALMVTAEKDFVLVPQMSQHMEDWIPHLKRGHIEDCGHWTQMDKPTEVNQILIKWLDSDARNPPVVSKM
Protocol: A fluorescence-based sEH activity assay provided a convenient method for screening human epoxide hydrolase inhibitors. The assay utilized (3-Phenyl-oxiranyl)-acetic acid cyano-(6-methoxy-naphthalen-2-yl)-methyl ester (PHOME) as a substrate. […] The inhibitory function of the compounds on sEH activity was tested as detailed in the product manual from Cayman Chemical. Briefly, 3 mL sEH assay buffer (10×) was diluted with 27 mL HPLC-grade water. This final assay buffer, 25 mM bis-tris (pH 7.0), was used in the assay and for the dilution of the soluble epoxide hydrolase (sEH) enzyme. Amounts of 12 μL each of human and mouse recombinant sEH were thawed on ice. Prior to assaying, 588 μL cold assay buffer was added directly to the enzyme vial. An amount of 190 μL assay buffer and 5 μL solvent (40% DMSO in assay buffer) were added to the background wells. In the 100% initial activity wells, 185 μL assay buffer, 5 μL sEH, and 5 μL solvent were added. In inhibitor wells, 185 μL assay buffer, 5 μL solution of the synthesized compounds, and 5 μL of recombinant enzyme solution were added.
(§1) Average fluorescence (AF) of the background wells and 100% initial activity in the wells and of each of the inhibitors were determined. The background AF was subtracted from the 100% initial activity and inhibitor AFs. The % sEH activity is calculated as (inhbitited AF/% 100 initial activity) × 100.
(§2) Multiple concentrations of the inhibitors were tested followed by plotting of the percent activity as a function of inhibitor concentration to determine the IC50 values.

mouse recombinant sEH = biological target: T2, mouse recombinant sEH (Mus musculus, UniProt P34914); experiment: Fluorescence-based sEH activity assay (PHOME substrate), mouse enzyme; format: biochemical; conditions: dose-dependent assay; read-out: Mouse sEH Inhibition IC50
T2 sequence (P34914 1-554): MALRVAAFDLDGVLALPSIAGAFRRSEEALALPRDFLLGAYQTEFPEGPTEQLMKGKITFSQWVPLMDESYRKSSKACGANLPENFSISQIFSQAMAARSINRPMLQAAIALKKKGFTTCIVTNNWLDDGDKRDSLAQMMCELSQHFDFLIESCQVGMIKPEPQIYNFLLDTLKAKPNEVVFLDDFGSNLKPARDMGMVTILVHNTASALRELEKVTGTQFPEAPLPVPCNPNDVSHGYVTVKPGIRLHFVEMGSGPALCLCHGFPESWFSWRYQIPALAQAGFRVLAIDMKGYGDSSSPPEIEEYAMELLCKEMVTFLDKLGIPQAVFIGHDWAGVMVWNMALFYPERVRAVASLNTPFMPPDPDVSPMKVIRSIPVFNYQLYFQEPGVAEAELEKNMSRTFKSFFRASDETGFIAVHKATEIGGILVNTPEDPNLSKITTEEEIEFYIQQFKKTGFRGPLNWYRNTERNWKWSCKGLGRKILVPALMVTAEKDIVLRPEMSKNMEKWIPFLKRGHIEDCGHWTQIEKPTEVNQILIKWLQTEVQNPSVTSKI
Protocol: A fluorescence-based sEH activity assay provided a convenient method for screening human epoxide hydrolase inhibitors. The assay utilized (3-Phenyl-oxiranyl)-acetic acid cyano-(6-methoxy-naphthalen-2-yl)-methyl ester (PHOME) as a substrate. […] The inhibitory function of the compounds on sEH activity was tested as detailed in the product manual from Cayman Chemical. Briefly, 3 mL sEH assay buffer (10×) was diluted with 27 mL HPLC-grade water. This final assay buffer, 25 mM bis-tris (pH 7.0), was used in the assay and for the dilution of the soluble epoxide hydrolase (sEH) enzyme. Amounts of 12 μL each of human and mouse recombinant sEH were thawed on ice. Prior to assaying, 588 μL cold assay buffer was added directly to the enzyme vial. An amount of 190 μL assay buffer and 5 μL solvent (40% DMSO in assay buffer) were added to the background wells. In the 100% initial activity wells, 185 μL assay buffer, 5 μL sEH, and 5 μL solvent were added. In inhibitor wells, 185 μL assay buffer, 5 μL solution of the synthesized compounds, and 5 μL of recombinant enzyme solution were added. To start the reaction, 5 μL of PHOME was added to each well at a final concentration of 0.25 mM. The microwell plate was shaken carefully for 10 s and covered with a plate cover.
as §1, §2

[1] = Plasma protein binding (equilibrium dialysis), mouse; format: in vitro ADME; conditions: for fraction unbound at 5 h, 1 μM: plasma (non-diluted), pH 7.4, read-out: Plasma Protein Binding Mouse % of Bound Comp (converted)
Protocol: The assay was performed in a multiple-use 96-well dialysis unit (HTD96b dialyzer). Each individual well unit consisted of 2 chambers separated by a vertically aligned dialysis membrane of predetermined pore size (MWCO 12–14 kDa). An amount of 120 μL of non-diluted plasma spiked with the compound (1 μM, final DMSO concentration 1%) was added to one chamber, and the same volume of PBS buffer with pH 7.4 was added to the other chamber. The HTD96b dialyzer was covered with adhesive sealing film and incubated at 37 °C and shaken at 100 rpm for 5 h. For sample preparation, an aliquot of the content of each chamber was mixed with the same volume of the blank opposite matrix. To define the non-specific loss of the compound during this assay, a standard solution was created by mixing an aliquot of spiked plasma with a blank buffer without dialysis. Two aliquots of the standard solution were incubated at 37 °C and shaken at 100 rpm for 5 h (recovery samples). The other two aliquots were immediately diluted with acetonitrile and stored at 4 °C until LC–MS/MS analysis (stability samples). All samples were diluted 5-fold with 100% methanol with subsequent plasma protein sedimentation by centrifuging at 6000 rpm for 5 min. Supernatants were analyzed using the HPLC system coupled with a tandem mass spectrometer.

**Q.** With `O=C(NC12CC3CC(CC(C3)C1)C2)NS(=O)(=O)c1ccc(OC(F)(F)F)cc1` [Compound 4f] as the compound, how does the “Human sEH % Inhibition” value (human recombinant sEH) read?
**A.** The value was 96.05%.

**Q.** And the IC50 (human recombinant sEH)?
**A.** Its IC50 is 1.69 nM.

**Q.** And the IC50 (mouse recombinant sEH)?
**A.** Its IC50 is 290 nM.

**Q.** And the “compound recovery/stability in mouse plasma after 5 h incubation (%)” value [1]?
**A.** Its value is 106%.

**Q.** What about the fraction unbound at 5 h, 1 μM [1] of the same compound?
**A.** The fraction unbound at 5 h, 1 μM was 0.02.

**Q.** Which “Human sEH % Inhibition” value (human recombinant sEH) does the source give for `O=C(NC12CC3CC(CC(C3)C1)C2)NS(=O)(=O)c1ccc2ccccc2c1` [Compound 4l] here?
**A.** The value was 96.79%.

**Q.** And the IC50 (human recombinant sEH)?
**A.** Its IC50 is 1.21 nM.

**Q.** What about the IC50 (mouse recombinant sEH) of the same compound?
**A.** The IC50 was 190 nM.

**Q.** What about the “compound recovery/stability in mouse plasma after 5 h incubation (%)” value [1] of the same compound?
**A.** Its value is 88%.

**Q.** What about the fraction unbound at 5 h, 1 μM [1] of the same compound?
**A.** Its fraction unbound at 5 h, 1 μM is 0.02.
